We go through 104 molecules from PubChem BioAssay AID1996.

≈ marks a conversion by molar mass, not a printed value. A value given as a limit tells only on which side of the number the result lay.

For the series the following is noted: buffer; pH 7.4; 200.0 µM.
One may read the kinetic solubility as solubility judged after dilution from a stock solution rather than from solid. `CN(C)c1cc(-c2ccc(Br)cc2)oc(=O)c1Cl` had a kinetic solubility of 1.1 µg/mL (≈ 3.35 µM). In the case of `N#Cc1cccnc1N1CCN(C(=O)COCC(=O)O)CC1` it was 41 µg/mL (≈ 135 µM). On to `COCc1cc(=O)[nH]c2cc(NC(=O)c3cccc(OC)c3)c(C)cc12`, for which the solubility (kinetic) is 1.1 µg/mL (≈ 3.12 µM).

`O=C(CSc1nc2sc3c(c2c(=O)[nH]1)CCC3)NCCO` yielded a kinetic solubility above 48.8 µg/mL.

`CC(=O)c1ccc(NC(=O)C(Cc2ccccc2)n2cccc2)cc1` (centres undefined): the solubility (kinetic) is 1.6 µg/mL (≈ 4.81 µM). For `CNC(=O)C1CC(=O)N(CCc2ccc(C)cc2)C1` (centres undefined) the value was above 39.1 µg/mL; for `Cl.NCCS`, above 17 µg/mL. As for `Cc1ccc(-c2csc(NS(=O)(=O)c3cccc(F)c3)n2)o1`, the kinetic solubility was above 50.8 µg/mL. Turning to `CCOc1ccc(N2C(=O)CC(Cc3ccccc3OC)C2=O)cc1` (centres undefined), the solubility (kinetic) turned out to be 4.9 µg/mL (≈ 14.4 µM). In the case of `CCCC1NC(C(=O)O)Cc2c1[nH]c1ccccc21` (centres undefined) it was 37.3 µg/mL (≈ 144 µM); in that of `CC1CCN(C(=O)c2ccc(NC(=O)c3cccs3)cc2)CC1`, 44.7 µg/mL (≈ 136 µM); in that of `COc1ccccc1C(=O)NC1CCN(C(=O)Nc2ccc(C)cc2)CC1`, 46.8 µg/mL (≈ 127 µM). For `CCCCN(CCO)c1ncnc2sc(-c3ccccc3)cc12` the value was below 0.2 µg/mL. For `CC(=O)c1c(C)n(-c2ccc(Cl)cc2)c2ccc(O)cc12`, the kinetic solubility was below 0.6 µg/mL. In the case of `O=c1cc(O)c2sc3nc(C(F)(F)F)c4c(c3c2[nH]1)CCCCC4` it was above 53.2 µg/mL; in that of `O=C(O)c1cccnc1SCC(=O)N1CCCc2ccccc21`, 47 µg/mL (≈ 143 µM). The molecule `CCOc1ccccc1NC(=O)NC(=O)N(C)S(C)(=O)=O` showed a kinetic solubility of 18 µg/mL (≈ 57.1 µM). In the case of `Cl.NCC1CC2c3ccccc3C1c1ccccc12` (centres undefined) it was above 40.8 µg/mL. In the case of `O=C(CSc1ncc(-c2ccccc2)[nH]1)Nc1ccccc1F` it was above 49.1 µg/mL; in that of `O=C(NCCc1ccccc1)c1cnc2n(c1=O)CCS2`, 45 µg/mL (≈ 149 µM); in that of `CCOc1ccc(CC(=O)Nc2cc(=O)n(C)c(=O)n2C)cc1`, 4.8 µg/mL (≈ 15.1 µM). For `CC(OC(=O)[C@@H]1CCCN1C(=O)c1cccs1)C(=O)Nc1cccc([N+](=O)[O-])c1` (some centres undefined) the value was 18.4 µg/mL (≈ 44.1 µM); for `Cc1ccc(CSC2=NCCN2C(=O)c2ccc([N+](=O)[O-])cc2)cc1`, 6.3 µg/mL (≈ 17.7 µM); for `Cc1cccc(N2C(=O)C(O)=C(C(=O)c3cccs3)C2c2ccccc2)n1` (centres undefined), 53 µg/mL (≈ 141 µM). For the molecule `Cc1cc(-c2ccc([N+](=O)[O-])cc2)nc2ccccc12.Cl`, the kinetic solubility is 1 µg/mL. Regarding `COCCOC(=O)c1[nH]c2c(c1C)C(=O)CC(c1ccc(OC)cc1)C2` (centres undefined), the kinetic solubility was 1.6 µg/mL (≈ 4.48 µM).

`Cc1nccn1CCC(=O)Nc1ccc(Cl)cc1` had a kinetic solubility above 39.6 µg/mL. For `Cc1cc(C)n2nc(SCC(=O)N3CCCC(C)C3)nc2n1` (centres undefined) the value was above 47.9 µg/mL; for `COCc1cc(C)nc(SCc2ccc(Cl)cc2)c1C#N`, 0.8 µg/mL (≈ 2.51 µM); for `CC1(C)Cc2c(sc(NC(=O)Cc3ccccc3)c2C#N)CO1`, 0.4 µg/mL (≈ 1.23 µM). In turn, `O=C(c1ccco1)N1CCN(Cc2nc3ccccc3[nH]2)CC1` showed a solubility (kinetic) of 41.2 µg/mL (≈ 133 µM).

The molecule `Cc1ccc(OCCC(=O)OCC(=O)NC2CCCC2)cc1` registered a kinetic solubility above 45.8 µg/mL. In the case of `O=C(CN1C(=O)NC2(CCCc3ccccc32)C1=O)c1ccccc1F` (centres undefined) it was 10.4 µg/mL (≈ 29.5 µM); in that of `O=C(COc1ccccc1C(=O)O)Nc1cccc2ccccc12`, above 48.2 µg/mL; in that of `Clc1ccc(-c2nc(-c3cnccn3)no2)cc1`, 3.2 µg/mL (≈ 12.4 µM). Take `COc1ccc(NC(=O)Nc2cccc(C)n2)c(OC)c1`: the solubility (kinetic) is below 0.2 µg/mL. Take `Cc1cccc(/N=C/C2=C(O)CC(C)(C)CC2=O)n1`: the solubility (kinetic) is above 38.7 µg/mL.

Turning to `COc1cccc(C(C)NC(=O)Nc2cc(Cl)ccc2OC)c1` (centres undefined), the kinetic solubility is below 0.4 µg/mL.

`CCOc1ccc(C(=O)NC(C(=O)N2CCC2)C(C)C)cc1` (centres undefined) yielded a kinetic solubility above 45.7 µg/mL. As for `O=C(c1cc2cc([N+](=O)[O-])ccc2s1)N1CCOCC1`, the kinetic solubility amounted to 16.2 µg/mL (≈ 55.4 µM). In the case of `COc1cc(C(=S)N2CCOCC2)ccc1OC(=O)c1ccccc1C` it was 10.3 µg/mL (≈ 27.7 µM).

`Cc1nc(C(F)(F)F)ccc1C(=O)NN1CCOCC1` displayed a kinetic solubility above 43.4 µg/mL. In turn, `O=[N+]([O-])c1ccc(CS(=O)(=O)c2ccc(Cl)cc2)cc1` returned a kinetic solubility of 3.4 µg/mL (≈ 10.9 µM). In the case of `O=C(O)CN1CCN(Cc2cccc(Cl)c2)C1=O`, the solubility (kinetic) is above 40.3 µg/mL.

For the molecule `Cc1c(C=C2C(=O)c3ccccc3C2=O)cc(C#N)n1C`, the solubility (kinetic) was found to be 0.6 µg/mL (≈ 2.17 µM). For the molecule `COc1ccc(C(=O)O)cc1S(=O)(=O)NCc1ccncc1`, the kinetic solubility was above 48.4 µg/mL. For `Cc1nnc(NN2CCOCC2)[nH]c1=O`, the solubility (kinetic) is above 31.7 µg/mL. In turn, `CC(C)(C)Nc1c(-c2cccs2)nc2ccccn12` gave a solubility (kinetic) of 33.4 µg/mL (≈ 123 µM). In turn, `COc1ccc(N2CCN(C(=O)Cc3ccc(C)cc3)CC2)cc1` displayed a kinetic solubility of 43.9 µg/mL (≈ 135 µM). On to `c1ccc(NC2=Nc3cccc4cccc2c34)cc1`, for which the kinetic solubility was 0.6 µg/mL (≈ 2.46 µM). Molecule `CCc1nonc1NC(=O)c1oc2cc(C)c(Cl)cc2c1C` came in with a solubility (kinetic) of 0.5 µg/mL (≈ 1.56 µM).

`COC(=O)c1ccc(N=C2SCC(=O)N2C)cc1`: the kinetic solubility is above 39.6 µg/mL.

For `Cc1cccc(C(=O)NC2CC3CCCC(C2)N3Cc2ccccc2)c1` (centres undefined), the solubility (kinetic) amounted to 11.1 µg/mL (≈ 31.9 µM).

In turn, `CN(C(=O)CSc1ncnc2ccccc12)C1CCCCC1` registered a solubility (kinetic) of 45.4 µg/mL (≈ 144 µM). In the case of `CC(=O)n1cc(C=C2C(=O)NC(=O)NC2=O)c2ccccc21` it was 27.5 µg/mL (≈ 92.5 µM); in that of `Cc1cccc(C(=O)OC(C)CN2C(C)CCCC2C)c1.Cl` (centres undefined), above 48.9 µg/mL. For `Cc1cccc(C(=O)Nc2ccc(Oc3cnccn3)cc2)c1` the value was 5.6 µg/mL (≈ 18.3 µM).

`Cc1ccc(-c2csc(NC(=O)c3c(C)noc3C)n2)s1`: the solubility (kinetic) was 15.8 µg/mL (≈ 49.5 µM). The molecule `CCN(CCS(=O)(=O)c1ccc(Br)cc1)Cc1nc2ccccc2c(=O)[nH]1` registered a kinetic solubility of 9.3 µg/mL (≈ 20.7 µM). In turn, `COc1ccccc1CCNC1CCCCCC1` came in with a solubility (kinetic) above 37.1 µg/mL.

Turning to `COc1cc(OC)cc(C(=O)NC(c2ccccc2)c2ccccc2)c1`, the kinetic solubility was below 0.7 µg/mL. Regarding `O=C(Nc1cccc(F)c1)c1c(O)c2cccc3c2n(c1=O)CCC3`, the solubility (kinetic) is below 0.4 µg/mL. For `Cc1ccc(NC(=O)Nc2ccno2)cc1` the value was above 32.6 µg/mL; for `CCOC(=O)c1oc2ccc(Cl)cc2c1NC(C)=O`, 4.8 µg/mL (≈ 17 µM); for `O=C(CSc1ncnc2ccccc12)Nc1ccc2c(c1)OCCO2`, 1.3 µg/mL (≈ 3.68 µM).

In the case of `O=C(/C=C/c1ccco1)Nc1ccc(CN2CCOCC2)cc1`, the kinetic solubility is above 46.9 µg/mL. Take `O=C(/C=C\c1ccccc1)Oc1cccc2cccnc12`: the kinetic solubility worked out at 17.3 µg/mL (≈ 62.8 µM). For `O=CN1CCN(C(=O)c2ccc3c(c2)OCO3)CC1` the value was above 39.3 µg/mL; for `FC(F)(F)c1ccccc1CNCc1ccncc1`, 29.4 µg/mL (≈ 110 µM). For `O=C1CC(Cc2ccccc2)C(=O)N1c1ncccn1` (centres undefined) the value was above 40.1 µg/mL. The molecule `Cl.N[C@@H](CCl)C(=O)O` showed a kinetic solubility above 24 µg/mL.

Turning to `COc1cc2c(cc1OC)CN(C(=O)c1ccc3[nH]c(C)c(C)c3c1)CC2`, the solubility (kinetic) stood at 6.9 µg/mL (≈ 18.9 µM). `CCCCn1c(CCl)nc2cc(S(=O)(=O)N3CCOCC3)ccc21` yielded a solubility (kinetic) above 55.8 µg/mL. In the case of `Cc1cccc(NC(=O)c2ccc(Cl)nc2)n1` it was above 37.2 µg/mL; in that of `COc1cc(C2Nc3cccc4cccc(c34)N2)ccc1O`, 35.5 µg/mL (≈ 121 µM). For `Cn1nc(C(C)(C)C)c([N+](=O)[O-])c1C(=O)N1CCOCC1` the value was above 44.4 µg/mL; for `COc1cc([N+](=O)[O-])ccc1NC(=S)N1CCN(c2ccccn2)CC1`, 12.2 µg/mL (≈ 32.7 µM). Consider `O=C(NC1CCCCC1)N1CCc2ccccc2C1`, for which the solubility (kinetic) was above 38.8 µg/mL. In turn, `Fc1ccc(Oc2nc(-c3ccccn3)nc3ccccc23)cc1` returned a solubility (kinetic) of 17.3 µg/mL (≈ 54.5 µM). In turn, `Cc1occc1C(=O)N1CCN(c2ccc(Cl)cc2)CC1` registered a kinetic solubility of 43.6 µg/mL (≈ 143 µM). In the case of `CC(=O)Oc1ccc2occ(/C=N/c3cc(=O)[nH]c(=S)[nH]3)c(=O)c2c1` it was above 53.6 µg/mL. For `COC(=O)c1[nH]c2c(c1C(=O)OC)CCc1ccccc1-2` the value was 19.4 µg/mL (≈ 68 µM); for `CC(=O)N(CCCN(C)C)c1nc2ccc(C)cc2s1.Cl`, above 49.2 µg/mL.

`COC(=O)C1C(O)=C(C(C)=Nc2cccc3ccccc23)C(=O)CC1(C)C` (centres undefined) came in with a kinetic solubility of 20.3 µg/mL (≈ 55.6 µM). For `Cc1nc2ccc(NC(=O)C3COc4ccccc4O3)cc2s1` (centres undefined), the solubility (kinetic) was determined as 30.9 µg/mL (≈ 94.7 µM). As for `COc1ccc(C/C(N)=N/OC(=O)c2ccc(Cl)cc2)cc1`, the kinetic solubility stood at 0.6 µg/mL (≈ 1.88 µM). For `O=C(O)CC1(CC(=O)NCc2cccc(Cl)c2)CCCCC1`, the kinetic solubility was above 48.6 µg/mL.

As to `Cc1cc(Nc2ccc(Br)cc2)nc(-c2ccccc2O)n1`, the kinetic solubility is below 0.3 µg/mL.

As to `O=C(NCCc1ccccc1)C1CC1`, the solubility (kinetic) was above 28.4 µg/mL. For `O=C(c1ccc(NC(=O)C2(c3ccccc3)CCCC2)cc1)N1CCOCC1` the value was above 56.8 µg/mL. For `CCN(c1ccccc1)S(=O)(=O)c1ccc(N2CCN(c3ccc(O)cc3)CC2)nc1` the value was 2.7 µg/mL (≈ 6.16 µM). In the case of `CCOC(=O)Cn1cnc2scc(-c3ccccc3)c2c1=O` it was above 47.2 µg/mL; in that of `CCSc1ccccc1C(=O)Nc1ccc2c(c1)OCO2`, 13.8 µg/mL (≈ 45.8 µM). Molecule `O=C(O)CNc1ccccc1C(=O)O` had a kinetic solubility above 29.3 µg/mL. In the case of `O=C(Nc1ccc(F)cc1)N1CCN(C(=O)C2CCCO2)CC1` (centres undefined) it was above 48.2 µg/mL; in that of `Nc1ccc(S(=O)(=O)N2CCCC2)cc1Cl`, above 39.1 µg/mL. For the molecule `C/C=C/c1ccc(OCC(=O)Nc2ccncc2)c(OC)c1`, the kinetic solubility amounted to 42.1 µg/mL (≈ 141 µM). In turn, `Cc1ccccc1OCC(=O)OCC(=O)NC1CC1` yielded a solubility (kinetic) above 39.5 µg/mL. `O=C1NC(=O)C(Cc2cccc(Oc3ccccc3)c2)S1` (centres undefined) had a solubility (kinetic) above 44.9 µg/mL. For `CC(C)c1ccc(-n2ccnc2SCC(=O)O)cc1` the value was above 41.5 µg/mL; for `Cc1cccn2c(=O)c(/C=C(\C#N)C(N)=O)c(N3CCCCCC3)nc12`, 5.1 µg/mL (≈ 14.5 µM). In the case of `O=[N+]([O-])c1ccc(OCc2cnc(Cl)s2)cc1` it was 5.6 µg/mL (≈ 20.7 µM). In the case of `CC(=O)c1c(C)n(CC(=O)NCc2ccco2)c2ccccc12` it was 18.5 µg/mL (≈ 59.6 µM). `O=C(C1CCC1)N1CCN(c2ccnc3cc(Cl)ccc23)CC1` registered a kinetic solubility of 45.4 µg/mL (≈ 138 µM).
